In US5750362A, “Methods for identifying substances with a potential herbicidal or growth-regulating action by means of plant transporter proteins, the use of the transporter proteins, and substances with a herbicidal and growth-regulating action” (BASF Aktiengesellschaft, priority 1993, dated 1998):
Like-named read-outs stand apart in the source and are kept apart here. Blank lines part the entries; values can stand above or below the compound they belong to.

Experiments:
[1] = target: T1, sucrose transporter S21 (SoSUT1) (Spinacia oleracea, UniProt Q03411); assay: [14C]-sucrose uptake by yeast strain SUSY7 expressing the spinach sucrose transporter; type: cell-based; conditions: for remaining activity at 1000 µM: tested substance 1.0 mmol/l
T1 construct: expressed in transfected cells; host or cells: Saccharomyces cerevisiae SUSY7
T1 sequence (Q03411 1-525): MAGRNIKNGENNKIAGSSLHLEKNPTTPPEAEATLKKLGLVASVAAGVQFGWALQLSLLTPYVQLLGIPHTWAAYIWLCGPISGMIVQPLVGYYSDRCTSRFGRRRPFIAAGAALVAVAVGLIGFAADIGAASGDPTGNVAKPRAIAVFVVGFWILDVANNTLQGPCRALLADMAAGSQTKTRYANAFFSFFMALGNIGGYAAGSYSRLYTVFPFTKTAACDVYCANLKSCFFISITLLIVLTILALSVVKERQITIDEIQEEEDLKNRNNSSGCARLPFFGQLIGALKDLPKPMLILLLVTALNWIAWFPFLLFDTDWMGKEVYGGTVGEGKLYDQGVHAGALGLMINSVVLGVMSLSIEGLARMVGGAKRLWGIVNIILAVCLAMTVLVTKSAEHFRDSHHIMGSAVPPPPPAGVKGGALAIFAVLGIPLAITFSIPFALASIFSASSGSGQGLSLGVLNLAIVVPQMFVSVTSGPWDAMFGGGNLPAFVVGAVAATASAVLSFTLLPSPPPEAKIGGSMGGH
Description: Yeast cells of the strain SUSY7 (Riesmeier et al., 1992, EMBO J. 11: 4705-4713) are used to identify substances which have an inhibitory effect on sucrose transporters from spinach. Cells of this strain are transformed with a cDNA sequence which codes for the sucrose transporter S21 (SoSUT1) from spinach and which ensures expression of a functional transporter in the cells. The yeast cells are cultured in minimal medium (SD+2% (w/v) sucrose, pH 3.8) at 28° C. and harvested in the logarithmic phase (OD600 =0.6). The cells are spun down at 4000 rpm for 10 minutes and washed twice with SD medium. A cell concentration of c=50 g/l in SD medium is adjusted according to the wet weight of the cells, and 200 μl aliquot fractions are taken. Before the actual reaction, the cells are incubated in 10 mM glucose for 5 min and adjusted to pH 3.8 with MES buffer. The reaction is started by adding 200 μl of a 0.2 mmol/l [14C]-sucrose solution (3 mCi/mmol) in SD medium (pH 3.8). After 20, 60, 120, 180 and 240 seconds, 70 μl portions of the suspension are removed and pipetted into 4 ml of ice-cold water in order to stop the reaction. The cells are filtered off on glass fiber filters and washed twice with ice-cold water. The radioactivity on the filters is subsequently determined in a liquid scintillation counter. The substances to be tested are added 30 seconds before addition of the sucrose. The uptake of radiolabeled sucrose without addition of a potential inhibitor is determined as one control. Cells of the strain SUSY7 which are not transformed with cDNA sequences coding for a sucrose transporter from spinach are employed as further control.
The various tested substances, their concentration and the activity of the transporter, shown as percentage activity of the control in which no potential inhibitors were added, are indicated. Substances which specifically show an inhibitory effect on the sucrose transporter S21 (SoSUT1), are tested for their herbicidal and growth-regulating effect on whole plants.

[2] = system: sucrose transporter P62 (StSUT1); assay: Activation of sucrose transport by preincubation of the yeast cells; type: cell-based, Solanum tuberosum
Description: The transport of sucrose by the sucrose transporter P62 (StSUT1) from Solanum tuberosum can be increased by previous energizing of the yeast cells by incubation in glucose, stachyose and adenine. The same increase in transport activity is achieved by reducing the pH to pH 3.8 in the measurement. The measurement of transport to determine the activation takes place as described in Example 3 but the cells are incubated before the actual measurement not in 10 mM glucose for 5 min but in solutions of various concentrations of glucose, stachyose and adenine for 5 min. Yeast cells which are not incubated in solutions of these substances before the measurement act as control. The following table indicates the extent of activation of sucrose transport with various concentrations of glucose, stachyose and adenine compared with the control.

[3] = target: T2, ammonium transporter AMT1 (Arabidopsis thaliana, UniProt P54144); assay: cell-based
T2 construct: expressed in transfected cells; host or cells: Saccharomyces cerevisiae 26972c (mutations in MEP1 and MEP2)
T2 sequence (P54144 1-501): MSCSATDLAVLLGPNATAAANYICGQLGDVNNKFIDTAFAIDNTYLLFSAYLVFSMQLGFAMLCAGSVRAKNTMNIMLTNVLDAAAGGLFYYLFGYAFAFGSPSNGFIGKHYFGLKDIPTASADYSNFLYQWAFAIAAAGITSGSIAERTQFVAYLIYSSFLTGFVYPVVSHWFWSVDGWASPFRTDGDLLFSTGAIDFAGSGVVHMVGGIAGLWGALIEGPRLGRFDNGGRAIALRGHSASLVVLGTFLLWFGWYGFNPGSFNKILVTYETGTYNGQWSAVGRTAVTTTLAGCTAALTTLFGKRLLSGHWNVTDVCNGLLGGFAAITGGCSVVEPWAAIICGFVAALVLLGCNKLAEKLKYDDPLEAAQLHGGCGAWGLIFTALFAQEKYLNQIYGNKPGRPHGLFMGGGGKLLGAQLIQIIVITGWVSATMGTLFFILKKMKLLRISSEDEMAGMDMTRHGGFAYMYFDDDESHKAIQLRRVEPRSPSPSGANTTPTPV

[4] = target: T3, sucrose transporter P62 (StSUT1) (Solanum tuberosum, UniProt Q43653); assay: [14C]-sucrose uptake by yeast strain SUSY-7-P62 (StSUT1) expressing the potato sucrose transporter; type: cell-based; conditions: [14C]-sucrose uptake, pH 3.8
T3 construct: whole-cell [14C]-sucrose uptake; no tag or borders given
T3 sequence (Q43653 1-516): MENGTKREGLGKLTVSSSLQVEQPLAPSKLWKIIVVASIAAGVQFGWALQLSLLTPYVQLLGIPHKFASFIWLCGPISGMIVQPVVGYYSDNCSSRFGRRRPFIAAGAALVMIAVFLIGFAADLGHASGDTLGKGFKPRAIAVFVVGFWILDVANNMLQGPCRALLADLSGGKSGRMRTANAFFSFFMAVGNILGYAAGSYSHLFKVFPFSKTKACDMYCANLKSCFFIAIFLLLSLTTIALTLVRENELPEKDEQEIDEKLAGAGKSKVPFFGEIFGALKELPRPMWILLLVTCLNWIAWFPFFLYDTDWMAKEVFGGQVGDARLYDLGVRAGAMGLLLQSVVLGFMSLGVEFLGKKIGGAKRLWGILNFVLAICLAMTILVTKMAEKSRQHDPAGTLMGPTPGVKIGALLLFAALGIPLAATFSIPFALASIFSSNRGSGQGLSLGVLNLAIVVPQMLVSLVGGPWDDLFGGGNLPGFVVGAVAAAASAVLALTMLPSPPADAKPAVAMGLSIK
Excerpt: Yeast cells of the strain SUSY7 (Riesmeier et al., 1992, EMBO J. 11: 4705-4713) are used to identify substances which have an inhibitory effect on sucrose transporters from potato. Cells of this strain are transformed with a cDNA sequence which codes for the sucrose transporter P62 (StSUT1) from potato (WO 94/00574, Riesmeier et al., 1993, Plant Cell 5:1591-1598) and which ensures expression of a functional transporter in the cells. The resulting yeast strain was called SUSY-7-P62 (StSUT1). The yeast cells are cultured in minimal medium (SD +2% (w/v) sucrose, pH 3.8) at 28° C. and harvested in the logarithmic phase (OD600 =0.6). The cells are spun down at 4000 rpm for 10 minutes and washed twice with SD medium. A cell concentration of c=50 g/l in SD medium is adjusted according to the wet weight of the cells, and 200 Al aliquot fractions are taken. Before the actual reaction, the cells are incubated in 10 mM glucose for 5 min and adjusted to pH 3.8 with MES buffer. The reaction is started by adding 200 Al of a 0.2 mmol/l [14C]-sucrose solution (3 mCi/mmol) in SD medium (pH 3.8). After 20, 60, 120, 180 and 240 seconds, 70 μl portions of the suspension are removed and pipetted into 4 ml of ice-cold water in order to stop the reaction. The cells are filtered off on glass fiber filters and washed twice with ice-cold water. The radioactivity on the filters is subsequently determined in a liquid scintillation counter. The substances to be tested are added 30 seconds before addition of the sucrose. The uptake of radiolabeled sucrose without addition of a potential inhibitor is determined as one control. Cells of the strain SUSY7 which are not transformed with cDNA sequences coding for a sucrose transporter from potato are employed as further control.
The various tested substances, their concentration and the activity of the transporter, shown as percentage activity of the control in which no potential inhibitors were added, are indicated.

[5] = [14C]-sucrose uptake, pH 3.8, read-out: Activity relative to the control [%]
[6] = sucrose transport after 5 min preincubation with the substance at c1 [0.2 mol/l], 200000 µM
[7] = sucrose transport after 5 min preincubation with the substance at c2 [2 mmol/l]
[8] = [14C]-sucrose uptake, pH 3.8, tested substance 2 mM, read-out: Activity relative to the control [%]
[9] = [14C]-methylamine uptake, tested substance 500 μM
[10] = pH 7, read-out: Activity relative to the control [%]
[11] = pH 7, [14C]-methylamine uptake, tested substance 500 μM, read-out: Activity relative to the control [%]
[12] = pH 3.8, read-out: Activity relative to the control [%]
[13] = tested substance 2 mM, read-out: Activity relative to the control [%]
[14] = [14C]-sucrose uptake, pH 3.8, tested substance 2 mM

- remaining activity at 1000 µM [1, 5]: 0%
Compound: NC1CC(CO)C(O)C1O (centres unmarked)

- remaining activity at 1000 µM [1, 5]: 0%
Compound: Nc1ncnc2c1ncn2C1CC=CC1CO (centres unmarked)

Compound: Nc1ncnc2nc[nH]c12 [Adenine]
- Effect on sucrose transport as a function of concentration ([2]; preincubation of yeast cells, result in words): linear relation between the adenine concentration and the increase in the sucrose transport rate
- Activity relative to the control [%] [2, 6]: 141 ± 5%
- Activity relative to the control [%] [2, 7]: 225 ± 6%

- remaining activity at 2000 µM [1, 8]: 99.4%
Compound: OC[C@H]1O[C@@H](O[C@H]2[C@H](O)[C@@H](O)C(O)O[C@@H]2CO)[C@H](O)[C@@H](O)[C@@H]1O (some centres unmarked) [Cellobiose]

Compound: [Cl-].[Cs+] [CsCl]
- Activity relative to the control [%] [3, 9]: 98%

Compound: C[C@@H]1C[C@@H]([C@H](O)CC2CC(=O)NC(=O)C2)C(=O)[C@@H](C)C1 [Cycloheximide]
- remaining activity at 10 µg/mL [3, 10]: 85%

Compound: C(=NC1CCCCC1)=NC1CCCCC1 [DCCD]
- remaining activity at 200 µM ([3]; pH 7, [14C]-methylamine uptake, tested substance 200 μM, read-out: Activity relative to the control [%]): 15%

Compound: CNC [Dimethylamine]
- remaining activity at 500 µM [3, 10]: 89%

Compound: CCN [Ethylamine]
- remaining activity at 500 µM [3, 11]: 93%

Compound: OC[C@H]1OC(O)[C@H](O)[C@@H](O)[C@H]1O (some centres unmarked) [Galactose]
- remaining activity at 2000 µM [1, 12]: 97.7%

Compound: OC[C@H]1OC(O)[C@H](O)[C@@H](O)[C@@H]1O (some centres unmarked) [Glucose]
- Activity relative to the control [%] [2, 6]: 89 ± 5%
- Activity relative to the control [%] [2, 7]: 90 ± 3%

Compound: [Cl-].[K+] [KCl]
- Activity relative to the control [%] [3, 9]: 98%

Compound: OC[C@H]1OC(O)[C@@H](O)[C@@H](O)[C@@H]1O (some centres unmarked) [Mannose]
- remaining activity at 2000 µM [1, 12]: 86.5%

- remaining activity at 2000 µM [1, 8]: 92.3%
Compound: OC[C@H]1O[C@H](OC[C@H]2OC(O)[C@H](O)[C@@H](O)[C@@H]2O)[C@H](O)[C@@H](O)[C@H]1O (some centres unmarked) [Melibiose]

- remaining activity at 2000 µM [1, 8]: 97.2%
Compound: OC[C@H]1O[C@@](CO)(O[C@H]2O[C@H](CO)[C@@H](O)[C@H](O)[C@H]2O)[C@@H](O[C@H]2O[C@H](CO)[C@@H](O)[C@H](O)[C@H]2O)[C@@H]1O [Melizitose]

Compound: CCN1C(=O)C=CC1=O [N-Ethylmaleimide]
- remaining activity at 1000 µM ([4]; tested substance 1 mM, read-out: Activity relative to the control [%]): 22%

Compound: Cl.N [NH4 Cl]
- Activity relative to the control [%] [3, 9]: 10%

- remaining activity at 2000 µM [4, 13]: 102%
- remaining activity at 2000 µM [1, 8]: 85%
Compound: O=C(CO)[C@@H](O)[C@H](O)[C@H](O)CO[C@H]1O[C@H](CO)[C@@H](O)[C@H](O)[C@H]1O [Palatinose]

- remaining activity at 2000 µM [4, 13]: 110%
- remaining activity at 2000 µM [1, 8]: 110%
Compound: OC[C@H]1O[C@H](OC[C@H]2O[C@H](O[C@]3(CO)O[C@H](CO)[C@@H](O)[C@@H]3O)[C@H](O)[C@@H](O)[C@@H]2O)[C@H](O)[C@@H](O)[C@H]1O [Raffinose]

Compound: [Cl-].[Rb+] [RbCl]
- Activity relative to the control [%] [3, 9]: 96%

- remaining activity at 2000 µM [4, 13]: 103%
- remaining activity at 2000 µM [1, 8]: 105%
Compound: O=C(CO)[C@@H](O)[C@@H](O)[C@H](O)CO [Tagatose]

Compound: CN(C)C [Trimethylamine]
- remaining activity at 500 µM [3, 11]: 89%

- remaining activity at 2000 µM [1, 8]: 81.8%
Compound: OC[C@H]1O[C@@H](O[C@H]2[C@H](O)[C@@H](O)[C@@H](O)O[C@@H]2CO)[C@H](O)[C@@H](O)[C@H]1O [α-Lactose]

- Activity relative to the control [%] ([4]; tested substance 2 mM): 7%
- Activity relative to the control [%] [1, 14]: 8.0%
Compound: OC[C@H]1O[C@H](Oc2ccccc2)[C@H](O)[C@@H](O)[C@@H]1O [α-Phenylglucose]

Compound: OC[C@H]1O[C@@H](O[C@H]2[C@H](O)[C@@H](O)[C@H](O)O[C@@H]2CO)[C@H](O)[C@@H](O)[C@H]1O [β-Lactose]
- remaining activity at 2000 µM [4, 13]: 91%
- remaining activity at 2000 µM [1, 8]: 94.9%

- Activity relative to the control [%] [1, 14]: 80.6%
Compound: Altrose

Compound: Antimycin A
- Activity relative to the control [%] ([3]; [14C]-methylamine uptake, tested substance 10 μg/ml): 8%
